# According to patent publication US6699846B2, “Mono- and disaccharides for the treatment of nitric oxide related disorders” (Corixa Corporation, priority 2000, dated 2004):
# Where two headings read alike, the source gives them in different places.
# Tests used:
# [1] = system: pig infarct (LAD occlusion); experiment: pig infarct study (LAD occlusion), acute cardioprotection; assay type: in vivo
# Description: A total of 35 pigs were enrolled in the study: 8 in group 1; 10 in group 2; 7 in group 3, 7 in group 4; and 3 in group 5. When the data were analyzed, infarct size results from the two L-NAME control groups (1 and 3) were combined.
# [2] = system: human myelomonocytic cell line THP-1; experiment: proinflammatory cytokine elaboration from THP-1 cells; assay type: cell-based; details: for cytokine induction / cytokine stimulation: TNF-α, IL-1β, class symbols; for cytokine stimulation: second table
# Description: The human myelomonocytic cell line THP-1 (ATCC) was used to evaluate the ability of glycolipids to induce proinflammatory cytokines. Glycolipids were added to cell suspensions of THP-1 as aqueous solutions containing 10% ethanol in water for injection. Prior to the 4 hr inductions, THP-1 cells are pre-incubated overnight with 10^−7 M vitamin D3, washed three times and replated in the presence of MPL®, LPS or the synthetic compounds. After 4 hr coincubating of cells with glycolipids, media containing drug is removed, cells resuspended in fresh media and allowed to rest for 20 hr.
# [3] = USP rabbit pyrogen test; assay type: in vivo; details: for pyrogenicity: 2.5 μg dose, class symbols
# From the text: (§1) In clinical trials with monophosphoryl lipid A, fever was generally the first observed side effect. In clinical studies of various formulations of monophosphoryl lipid A administered intravenously, moderate fever, flu-like symptoms and alterations in blood pressure seem to be side effects that establish maximally tolerated doses. Minimum pyrogenic monophosphoryl lipid A doses, adjusted for body weight, as determined in the USP rabbit pyrogen test agree well with results observed in humans. […] In contrast, monophosphoryl lipid A becomes pyrogenic at intravenous doses of approximately 15 μg/kg (temperature increase of about 0.5° C.).
# [4] = body temperature in rats; assay type: in vivo, rat
# [5] = body temperature in dogs; assay type: in vivo, dog
# From the text: as §1
# [6] = system: iNOS induction in J774 murine macrophages; experiment: iNOS induction (nitrite release, Greiss reagent) in IFN-γ primed J774 cells; assay type: cell-based; details: for iNOS: second table, class symbols
# Description: The murine macrophage cell line J774 can be primed by IFN-γ in vitro and is very responsive to subsequent LPS stimulation of iNOS upregulation as measured by a standard Greiss reagent ELISA assay procedure. The assay utilizes J774 cells seeded at 1×10^6/mL with 30 mL/flask and with IFN-γ added at 100 units/mL for 16-24 hrs. Cells are then harvested and washed and resuspended at 2×10^5/well in a 96-well plate and allowed to adhere. Glycolipid compounds are serially diluted into the wells for a test group and the resulting cultures are incubated for another 36-40 hrs before culture supernatants are collected from Greiss reagent analysis of nitrite release. Nitrite content closely parallels iNOS function.
# Potency was determined as the concentration (ng/mL) of glycolipid in culture capable of inducing one-half maximal induction of nitrite (ED50). The lower the ED50 number, the greater the potency for iNOS induction.
# [7] = system: cardiac ischemia; details: dogs
# From the text: Free-radicals produced during reperfusion promote cell death. Free-radical damage to cells results in calcium overload and a decrease in activity of a variety of enzyme systems including, presumably, nitric oxide synthase causing a decrease in nitric oxide production leading to increases in neutrophil adhesion.
# [8] = system: cardiac ischemia; details: rabbits, treated about 24 h before cardiac ischemia
# [9] = system: ischemic tissues; details: infusion immediately following bolus dosing
# [10] = THP-1 cells, not elicited up to this concentration
Structure (SMILES),cytokine induction [2],pyrogenicity [3],cytokine stimulation [2],pyrogenicity ([3]; second table),iNOS [6],further results
CCCCCCCCCCCCCCCCCC(=O)OC(CCCCCCCCCCC)CC(=O)NC1C(OCC2OC(O)C(NC(=O)CC(CCCCCCCCCCC)OC(=O)CCCCCCCCCCCCCCC)C(O)C2O)OC(CO)C(OP(=O)(O)O)C1OC(=O)CC(CCCCCCCCCCC)OC(=O)CCCCCCCCCCCCC (centres unmarked) [RC-552],"− (−, not observable at 10 μg/mL)",− (−<1° C.),,,,"mean infarct size ([1]; pigs, 29 μg/kg i.v. bolus 10 minutes prior to ischemia (LAD occlusion), vehicle 28.9±5.0%): 14.2±3.0%; mean infarct size, L-NAME before RC-552 ([1]; pigs, 0.5 mg/kg L-NAME 30 minutes prior to 29 μg/kg RC-552): 40.2±4.4%; reduction of infarct size vs vehicle pretreated pigs ([1]; treated 10 minutes prior to ischemia): 50%; concentration inducing IL-1B secretion ([2]; THP-1 cells, 4 hr induction): > 10,000 ng/mL; concentration inducing IL-8 elaboration ([2]; THP-1 cells, 4 hr induction): > 10,000 ng/mL; concentration eliciting IL-1 [2, 10]: > 10,000 μg/mL; concentration eliciting IL-8 [2, 10]: > 10,000 μg/mL; concentration inducing TNF secretion ([2]; THP-1 cells, not induced up to this concentration): > 10,000 μg/mL; average temperature increase ([3]; rabbits, i.v. doses up to at least 1,000 μg/kg, 10% ethanol in USP WFI): less than 0.35 °C; intravenous dose without detectable increase in temperature [4]: > 3 mg/kg; intravenous dose without detectable increase in temperature [5]: > 3 mg/kg; maximal iNOS activity / nitrite elaboration ([6]; J774, IFN-γ primed): very low maximal iNOS activity; delayed cardioprotective effect after NOS inhibitor (aminoguanidine or L-NAME) [7]: blocked; delayed protection ([7]; treated about 24 h before cardiac ischemia): reduced infarct size and stunning; delayed protection [8]: reduced infarct size and stunning; duration of extended acute protective effect [9]: at least 3 h"
"COC(=O)[C@@H](N)CCCNC(=N)N[N+](=O)[O-] [L-NAME, Nω-nitro-L-arginine methyl ester, reference compound]",,,,,,"mean infarct size, L-NAME controls ([1]; pigs, combined group of L-NAME alone and L-NAME+vehicle, 0.5 mg/kg): 36.9±3.7%"
CCCCCCCCCCCCCCCC(=O)OC(CCCCCCCCCCC)CC(=O)NC1C(O)OC(COC2OC(CO)C(OP(=O)(O)O)C(OC(=O)CC(CCCCCCCCCCC)OC(=O)CCCCCCCCCCCCC)C2NC(=O)CC(CCCCCCCCCCC)OC(=O)CCCCCCCCCCCCC)C(O)C1O (centres unmarked) [Compound 5.20],"++ (++, observable @ 1 μg/mL)",− (−<1° C.),,,,
CCCCCCCCCCCC(CC(=O)N[C@H]1[C@H](OC[C@H](NC(=O)CC(CCCCCCCCCCC)OC(=O)CCCCC)C(=O)O)O[C@H](CO)[C@@H](OP(=O)(O)O)[C@@H]1OC(=O)CC(CCCCCCCCCCC)OC(=O)CCCCC)OC(=O)CCCCCCCCC (some centres unmarked) [Compound 5.68],,,"− (−, not observable at 10 μg/mL)",++ (++>2° C.),− (−>200),
CCCCCCCCCCCC(CC(=O)NC1C(O)OC(COC2OC(CO)C(OP(=O)(O)O)C(OC(=O)CC(CCCCCCCCCCC)OC(=O)CCCCC)C2NC(=O)CC(CCCCCCCCCCC)OC(=O)CCCCC)C(O)C1O)OC(=O)CCCCC (centres unmarked) [Compound 5.31],"− (−, not observable at 10 μg/mL)",− (−<1° C.),,,,
CCCCCCCCCCC[C@H](CC(=O)N[C@H]1[C@H](OC[C@H](NC(=O)C[C@@H](CCCCCCCCCCC)OC(=O)CCCCC)C(N)=O)O[C@H](CO)[C@@H](OP(=O)(O)O)[C@@H]1OC(=O)C[C@@H](CCCCCCCCCCC)OC(=O)CCCCC)OC(=O)CCCCC [Compound 5.21],"− (−, not observable at 10 μg/mL)",− (−<1° C.),,,,
CCCCCCCCCCCC(CC(=O)N[C@H]1[C@H](OC[C@H](NC(=O)CC(CCCCCCCCCCC)OC(=O)CCCCCCCCC)C(=O)O)O[C@H](CO)[C@@H](OP(=O)(O)O)[C@@H]1OC(=O)CC(CCCCCCCCCCC)OC(=O)CCCCC)OC(=O)CCCCCCCCC (some centres unmarked) [Compound 5.66],,,"− (−, not observable at 10 μg/mL)",++ (++>2° C.),++ (++<80),
CCCCCCCCCCCC(CC(=O)NC1C(O)OC(COC2OC(CO)C(OP(=O)(O)O)C(OC(=O)CC(CCCCCCCCCCC)OC(C)=O)C2NC(=O)CC(CCCCCCCCCCC)OC(C)=O)C(O)C1O)OC(C)=O (centres unmarked) [Compound 5.18],"− (−, not observable at 10 μg/mL)","+ (+, from 1-2° C.)",,,,
CCCCCCCCCCCC(CC(=O)NC1C(O)OC(COC2OC(CO)C(OP(=O)(O)O)C(OC(=O)CC(CCCCCCCCCCC)OC(=O)CCC)C2NC(=O)CC(CCCCCCCCCCC)OC(=O)CCC)C(O)C1O)OC(=O)CCC (centres unmarked) [Compound 5.32],"− (−, not observable at 10 μg/mL)",++ (++>2° C.),,,,
CCCCCCCCCCCCCC(=O)O[C@H](CCCCCCCCCCC)CC(=O)NCCCO[C@@H]1O[C@H](CO)[C@@H](OP(=O)(O)O)[C@H](OC(=O)C[C@@H](CCCCCCCCCCC)OC(=O)CCCCCCCCCCCCC)[C@H]1NC(=O)C[C@@H](CCCCCCCCCCC)OC(=O)CCCCCCCCCCCCC [Compound 5.25],"++ (++, observable @ 1 μg/mL)",− (−<1° C.),,,,
CCCCCCCCCCCCCC(=O)O[C@H](CCCCCCCCCCC)CC(=O)NCCO[C@@H]1O[C@H](CO)[C@@H](OP(=O)(O)O)[C@H](OC(=O)C[C@@H](CCCCCCCCCCC)OC(=O)CCCCCCCCCCCCC)[C@H]1NC(=O)C[C@@H](CCCCCCCCCCC)OC(=O)CCCCCCCCCCCCC [Compound 5.29],"++ (++, observable @ 1 μg/mL)",− (−<1° C.),,,,
CCCCCCCCCCCC(CC(=O)N[C@H]1[C@H](OC[C@H](NC(=O)CC(CCCCCCCCCCC)OC(=O)CCCCCCCCC)C(=O)O)O[C@H](CO)[C@@H](OP(=O)(O)O)[C@@H]1OC(=O)CC(CCCCCCCCCCC)OC(=O)CCCCC)OC(=O)CCCCC (some centres unmarked) [Compound 5.67],,,"− (−, not observable at 10 μg/mL)",++ (++>2° C.),− (−>200),
CCCCCCCCCCCC(CC(=O)N[C@H]1[C@H](OC[C@H](NC(=O)CC(CCCCCCCCCCC)OC(=O)CCCCCC)C(=O)O)O[C@H](CO)[C@@H](OP(=O)(O)O)[C@@H]1OC(=O)CC(CCCCCCCCCCC)OC(=O)CCCCCC)OC(=O)CCCCCC (some centres unmarked) [Compound 5.54],,,"− (−, not observable at 10 μg/mL)",++ (++>2° C.),− (−>200),
CCCCCCCCCCC[C@H](CC(=O)NCCO[C@@H]1O[C@H](CO)[C@@H](OP(=O)(O)O)[C@H](OC(=O)C[C@@H](CCCCCCCCCCC)OC(=O)CCCCC)[C@H]1NC(=O)C[C@@H](CCCCCCCCCCC)OC(=O)CCCCC)OC(=O)CCCCC [Compound 5.23],"− (−, not observable at 10 μg/mL)",− (−<1° C.),,,,
CCCCCCCCCCCC(CC(=O)N[C@H]1[C@H](OC[C@H](NC(=O)CC(CCCCCCCCCCC)OC(=O)CCCCC)C(=O)O)O[C@H](CO)[C@@H](OP(=O)(O)O)[C@@H]1OC(=O)CC(CCCCCCCCCCC)OC(=O)CCCCC)OC(=O)CCCCC (some centres unmarked) [Compound 5.26],,,"− (−, not observable at 10 μg/mL)",++ (++>2° C.),− (−>200),
